Measured values: patent publication US20260241039A1, “FLUORESCENT PROBES FOR MAGL” (Hoffmann-La Roche Inc., priority 2022, published 2026)

biological target: T1, hMAGL (Homo sapiens, UniProt Q99685); assay: 2-AG assay: MAGL inhibitory activity, hydrolysis of 2-arachidonoylglycerol to arachidonic acid followed by mass spectrometry; assay type: biochemical; conditions: 15 min pre-incubation at RT, 30 min reaction at RT, 8 μM 2-arachidonoylglycerol
T1 sequence (Q99685 1-303): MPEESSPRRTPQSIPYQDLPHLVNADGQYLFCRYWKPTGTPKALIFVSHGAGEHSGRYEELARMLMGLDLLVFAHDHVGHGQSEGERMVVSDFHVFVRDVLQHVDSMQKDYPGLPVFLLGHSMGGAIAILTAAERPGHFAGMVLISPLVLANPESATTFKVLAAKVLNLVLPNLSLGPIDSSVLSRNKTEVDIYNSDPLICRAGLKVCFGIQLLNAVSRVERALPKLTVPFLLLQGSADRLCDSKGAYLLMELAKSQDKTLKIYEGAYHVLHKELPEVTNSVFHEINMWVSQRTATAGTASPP
Procedure: Compounds were profiled for MAGL inhibitory activity by determining the enzymatic activity by following the hydrolysis of the natural substrate 2-arachidonoylglycerol (2-AG) resulting in arachidonic acid, which can be followed by mass spectrometry. This assay is hereinafter abbreviated “2-AG assay”.
The 2-AG assay was carried out in 384 well assay plates (PP, Greiner Cat #784201) in a total volume of 20 μL. Compound dilutions were made in 100% DMSO (VWR Chemicals 23500.297) in a polypropylene plate in 3-fold dilution steps to give a final concentration range in the assay from 12.5 μM to […]. 0.25 μL compound dilutions (100% DMSO) were added to 9 μL MAGL in assay buffer (50 mM TRIS (GIBCO, 15567-027), 1 mM EDTA (Fluka, 03690-100 mL), 0.01% (v/v) Tween. After shaking, the plate was incubated for 15 min at RT. To start the reaction, 10 μL 2-arachidonoylglycerol in assay buffer was added. The final concentrations in the assay was […] and 8 μM 2-arachidonoylglyerol. After shaking and 30 min incubation at RT, the reaction was quenched by the addition of 40 μL of ACN containing 4 μM of d8-arachidonic acid. The amount of arachidonic acid was traced by an online SPE system (Agilent Rapidfire) coupled to a triple quadrupole mass spectrometer (Agilent 6460). A C18 SPE cartridge (G9205A) was used in an ACN/water liquid setup. The mass spectrometer was operated in negative electrospray mode following the mass transitions 303.1→259.1 for arachidonic acid and 311.1→267.0 for d8-arachidonic acid. The activity of the compounds was calculated based on the ratio of intensities [arachidonic acid/d8-arachidonic acid].

Molecule	IC50 [nM]
2-(2-((5,5-difluoro-5H-4λ^4,5λ^4-dipyrrolo[1,2-c:2′,1′-f][1,3,2]diazaborinin-10-yl)oxy)-7-azaspiro[3.5]nonane-7-carbonyl)-7-oxa-2,5-diazaspiro[3.4]octan-6-one [Example 13]	3.99
2-(6-((5,5-difluoro-5H-4λ^4,5λ^4-dipyrrolo[1,2-c:2′,1′-f][1,3,2]diazaborinin-10-yl)methyl)-2-azaspiro[3.3]heptane-2-carbonyl)-7-oxa-2,5-diazaspiro[3.4]octan-6-one [Example 23]	1.26
2-(6-((5,5-difluoro-5H-4λ^4,5λ^4-dipyrrolo[1,2-c:2′,1′-f][1,3,2]diazaborinin-10-yl)methylene)-2-azaspiro[3.3]heptane-2-carbonyl)-7-oxa-2,5-diazaspiro[3.4]octan-6-one [Example 22]	12.6
2-(6-((5,5-difluoro-5H-4λ^4,5λ^4-dipyrrolo[1,2-c:2′,1′-f][1,3,2]diazaborinin-10-yl)oxy)-2-azaspiro[3.3]heptane-2-carbonyl)-7-oxa-2,5-diazaspiro[3.4]octan-6-one [Example 11]	1.76
2-(7-((5,5-difluoro-5H-4λ^4,5λ^4-dipyrrolo[1,2-c:2′,1′-f][1,3,2]diazaborinin-10-yl)methyl)-2-azaspiro[3.5]nonane-2-carbonyl)-7-oxa-2,5-diazaspiro[3.4]octan-6-one [Example 21]	0.69
2-(7-((5,5-difluoro-5H-4λ^4,5λ^4-dipyrrolo[1,2-c:2′,1′-f][1,3,2]diazaborinin-10-yl)methylene)-2-azaspiro[3.5]nonane-2-carbonyl)-7-oxa-2,5-diazaspiro[3.4]octan-6-one [Example 20]	0.67
6-(6-((5,5-difluoro-5H-4λ^4,5λ^4-dipyrrolo[1,2-c:2′,1′-f][1,3,2]diazaborinin-10-yl)methyl)-2-azaspiro[3.3]heptane-2-carbonyl)-2H-benzo[b][1,4]oxazin-3(4H)-one [Example 24]	7.5
O=C1CO[C@H]2CCN(C(=O)N3CC4(CC(Oc5ccc6ccc(=O)oc6c5)C4)C3)C[C@H]2N1 [Example 1]	255
O=C1CO[C@H]2CCN(C(=O)N3CC(COc4ccc5ccc(=O)oc5c4)C3)C[C@H]2N1 [Example 2, (4aR,8aS)-6-(3-(((2-oxo-2H-chromen-7-yl)oxy)methyl)azetidine-1-carbonyl)hexahydro-2H-pyrido[4,3-b][1,4]oxazin-3(4H)-one]	487
O=C1CO[C@H]2CCN(C(=O)N3CC(COc4cc(=O)oc5ccccc45)C3)C[C@H]2N1 [Example 3, (4aR,8aS)-6-(3-(((2-oxo-2H-chromen-4-yl)oxy)methyl)azetidine-1-carbonyl)hexahydro-2H-pyrido[4,3-b][1,4]oxazin-3(4H)-one]	667
O=C1CO[C@H]2CCN(C(=O)N3CC4(CC(Oc5cc(=O)oc6ccccc56)C4)C3)C[C@H]2N1 [Example 4, (4aR,8aS)-6-(6-((2-oxo-2H-chromen-4-yl)oxy)-2-azaspiro[3.3]heptane-2-carbonyl)hexahydro-2H-pyrido[4,3-b][1,4]oxazin-3(4H)-one]	298
COc1ccc2c(CN3CCN(C(=O)N4CC[C@@H]5OCC(=O)N[C@@H]5C4)CC3)cc(=O)oc2c1 [Example 5, (4aR,8aS)-6-(4-((7-methoxy-2-oxo-2H-chromen-4-yl)methyl)piperazine-1-carbonyl)hexahydro-2H-pyrido[4,3-b][1,4]oxazin-3(4H)-one]	3310
O=C1CO[C@H]2CCN(C(=O)N3CCC(Nc4ccc([N+](=O)[O-])c5nonc45)CC3)C[C@H]2N1 [Example 6, (4aR,8aS)-6-(4-((7-nitrobenzo[c][1,2,5]oxadiazol-4-yl)amino)piperidine-1-carbonyl)hexahydro-2H-pyrido[4,3-b][1,4]oxazin-3(4H)-one]	3810
O=C1CO[C@H]2CCN(C(=O)N3CC(COC4=C5C=CC=[N+]5[B-](F)(F)n5cccc54)C3)C[C@H]2N1 [Example 7, (4aR,8aS)-6-(3-(((5,5-difluoro-5H-4λ^4,5λ^4-dipyrrolo[1,2-c:2,1′-f][1,3,2]diazaborinin-10-yl)oxy)methyl)azetidine-1-carbonyl)hexahydro-2H-pyrido[4,3-b][1,4]oxazin-3(4H)-one]	2590
O=C1COC2CCN(C(=O)N3C[C@@H]4[C@@H](COC5=C6C=CC=[N+]6[B-](F)(F)n6cccc65)[C@@H]4C3)CC2N1 (stereo partly drawn) [Example 14, (4aR,8aS)-6-((1R,5S,6R)-6-(((5,5-difluoro-5H-4λ^4,5λ^4-dipyrrolo[1,2-c:2′,1′-f][1,3,2]diazaborinin-10-yl)oxy)methyl)-3-azabicyclo[3.1.0]hexane-3-carbonyl)hexahydro-2H-pyrido[4,3-b][1,4]oxazin-3(4H)-one]	500
O=C1CO[C@H]2CCN(C(=O)N3CC4(CC(=CC5=C6C=CC=[N+]6[B-](F)(F)n6cccc65)C4)C3)C[C@H]2N1 [Example 15, (4aR,8aS)-6-(6-((5,5-difluoro-5H-4λ^4, 5λ^4-dipyrrolo[1,2-c:2,1′-f][1,3,2]diazaborinin-10-yl)methylene)-2-azaspiro[3.3]heptane-2-carbonyl)hexahydro-2H-pyrido[4,3-b][1,4]oxazin-3(4H)-one]	43.3
O=C1CO[C@H]2CCN(C(=O)N3CC4(CC(CC5=C6C=CC=[N+]6[B-](F)(F)n6cccc65)C4)C3)C[C@H]2N1 [Example 16, (4aR,8aS)-6-(6-((5,5-difluoro-5H-4λ^4,5λ^4-dipyrrolo[1,2-c:2,1′-f][1,3,2]diazaborinin-10-yl)methyl)-2-azaspiro[3.3]heptane-2-carbonyl)hexahydro-2H-pyrido[4,3-b][1,4]oxazin-3(4H)-one]	0.77
NC(=O)[C@H]1CCN(C(=O)N2CC3(CC(CC4=C5C=CC=[N+]5[B-](F)(F)n5cccc54)C3)C2)C1 [Example 27, (S)-1-(6-((5,5-difluoro-5H-4λ^4,5λ^4-dipyrrolo[1,2-c:2,1′-f][1,3,2]diazaborinin-10-yl)methyl)-2-azaspiro[3.3]heptane-2-carbonyl)pyrrolidine-3-carboxamide]	1.98
O=C(N1CC2(CC(CC3=C4C=CC=[N+]4[B-](F)(F)n4c3ccc4-c3ccc[nH]3)C2)C1)N1CC2(CC(n3cnc(C4CC4)n3)C2)C1 [Example 31, (6-(3-cyclopropyl-1H-1,2,4-triazol-1-yl)-2-azaspiro[3.3]heptan-2-yl)(6-((5,5-difluoro-3-(1H-pyrrol-2-yl)-5H-5λ^4,6λ^4-dipyrrolo[1,2-c:2′,1′-f][1,3,2]diazaborinin-10-yl)methyl)-2-azaspiro[3.3]heptan-2-yl)methanone]	0.59
(4aR,8aS)-6-(2-((5,5-difluoro-5H-4λ^4, 5λ^4-dipyrrolo[1,2-c:2,1′-f][1,3,2]diazaborinin-10-yl)oxy)-7-azaspiro[3.5]nonane-7-carbonyl)hexahydro-2H-pyrido[4,3-b][1,4]oxazin-3(4H)-one [Example 12]	45
(4aR,8aS)-6-(4-((5,5-difluoro-5H-4λ^4, 5λ^4-dipyrrolo[1,2-c:2,1′-f][1,3,2]diazaborinin-O-yl)methylene)piperidine-1-carbonyl)hexahydro-2H-pyrido[4,3-b][1,4]oxazin-3(4H)-one [Example 17]	1680
(4aR,8aS)-6-(4-((5,5-difluoro-5H-4λ^4, 5λ^4-dipyrrolo[1,2-c:2′,1′-f][1,3,2]diazaborinin-10-yl)oxy)piperidine-1-carbonyl)hexahydro-2H-pyrido[4,3-b][1,4]oxazin-3(4H)-one [Example 9]	6320
